Our source for the IC50 values is patent US12522615B2, “Macrocyclic compounds and derivatives as EGFR inhibitors” (Boehringer Ingelheim International GmbH, priority 2019, dated 2026).

By IC50 is commonly meant the midpoint of a concentration-inhibition curve. Low readings indicate higher potency, high ones lower potency.

Sequence of EGFR del19 T790M C797S (P00533 25-1210 T790M/C797S limits assumed, form open): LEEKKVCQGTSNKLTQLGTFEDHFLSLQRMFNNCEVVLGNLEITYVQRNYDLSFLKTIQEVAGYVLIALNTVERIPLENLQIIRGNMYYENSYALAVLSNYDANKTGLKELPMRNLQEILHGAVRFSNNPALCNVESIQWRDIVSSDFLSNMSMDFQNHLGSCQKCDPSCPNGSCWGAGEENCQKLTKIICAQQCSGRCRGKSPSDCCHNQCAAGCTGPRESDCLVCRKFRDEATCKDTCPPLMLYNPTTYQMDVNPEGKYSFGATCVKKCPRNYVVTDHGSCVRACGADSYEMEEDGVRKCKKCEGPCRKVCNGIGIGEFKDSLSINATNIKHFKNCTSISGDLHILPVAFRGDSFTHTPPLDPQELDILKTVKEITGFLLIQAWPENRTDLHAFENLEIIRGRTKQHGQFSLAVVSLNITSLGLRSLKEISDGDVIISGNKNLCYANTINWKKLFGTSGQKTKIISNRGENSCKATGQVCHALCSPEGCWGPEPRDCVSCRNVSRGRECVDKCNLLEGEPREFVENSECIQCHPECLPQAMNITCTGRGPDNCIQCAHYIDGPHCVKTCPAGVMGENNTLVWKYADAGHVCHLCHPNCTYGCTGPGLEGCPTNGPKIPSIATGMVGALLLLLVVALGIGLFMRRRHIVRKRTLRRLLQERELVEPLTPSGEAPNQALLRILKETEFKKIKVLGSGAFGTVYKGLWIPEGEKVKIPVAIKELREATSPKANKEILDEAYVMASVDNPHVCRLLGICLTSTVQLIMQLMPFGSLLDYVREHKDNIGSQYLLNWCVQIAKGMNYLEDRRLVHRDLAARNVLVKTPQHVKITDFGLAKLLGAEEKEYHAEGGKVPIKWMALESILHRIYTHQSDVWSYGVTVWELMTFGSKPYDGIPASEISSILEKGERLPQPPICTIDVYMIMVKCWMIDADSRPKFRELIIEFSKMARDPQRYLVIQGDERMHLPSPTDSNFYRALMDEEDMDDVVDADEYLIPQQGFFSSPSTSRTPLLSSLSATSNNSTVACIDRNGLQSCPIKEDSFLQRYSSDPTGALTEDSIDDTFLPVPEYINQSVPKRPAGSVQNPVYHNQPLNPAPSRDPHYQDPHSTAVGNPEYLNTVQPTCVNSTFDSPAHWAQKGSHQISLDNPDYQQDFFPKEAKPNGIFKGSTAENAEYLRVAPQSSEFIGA

The experiment addresses EGFR del19 T790M C797S (Homo sapiens, UniProt P00533, C797S/T790M, form not given). Briefly: pEGFR assay: phosphorylation of EGFR at Tyr1068 in Ba/F3 cells (AlphaScreen Surefire). In kind it is cell-based. The conditions noted are these: 4 h. The protocol: Transduced cells were selected using puromycin. Following selection, IL-3 was withdrawn and IL-3 independent cells cultured. p-EGFR Tyr1068 was determined using the AlphaScreen Surefire pEGF Receptor (Tyr1068) Assay (PerkinElmer, TGRERS). […] Subsequently, 60.000 cells/well in 60 μL were added. Cells were incubated with compound for 4 h at 37° C. […] The mixture was incubated at room temperature with shaking (700 rpm) for 20 min. After centrifugation, 4 μL of the lysate were transferred to Proxiplates. […] Plates were shaken for 1 min (1400 rpm) and incubated for 2 h at room temperature in the dark.
A general note: Bead proximity is the source of the signal in Alpha formats.
Consider `Cc1cc2cc(n1)-c1cnn(C)c1OCCCCCCN1/C(=N/C2=O)Nc2ccccc21` [Compound I-002], for which it took 4.2 nM to reach half-maximal inhibition (IC50).
Consider `C[C@@H]1CCCOc2c(cnn2C)-c2cc(cc(C#N)n2)C(=O)/N=C2\Nc3ccccc3N2C1` [Compound I-004], for which the IC50 amounted to 1.3 nM.
Consider `Cc1cc2cc(n1)-c1cnn(C)c1OCC[C@@H]1CC[C@@H](C1)N1/C(=N/C2=O)Nc2ccccc21` [Compound I-006], for which the IC50 came to 17 nM.
Regarding `Cc1cc2cc(n1)-c1cnn(C)c1OCCC[C@@H](O)CN1/C(=N/C2=O)Nc2ccccc21` [Compound I-007], the IC50 amounted to 1.1 nM. This IC50 lies about 15-fold lower than the previous one.
For `Cc1cc2cc(n1)-c1cnn(C)c1OCCC[C@H](O)CN1/C(=N/C2=O)Nc2ccccc21` [Compound I-008] the value was 7.4 nM.
On to `Cc1cc2cc(n1)-c1cnn(C)c1OCC[C@H](O)CCN1/C(=N/C2=O)Nc2ccccc21` [Compound I-009], for which inhibition was half-maximal at 1 nM (IC50).
Regarding `Cc1cc2cc(n1)-c1cnn(C)c1OCCC(O)CCN1/C(=N/C2=O)Nc2ccccc21` (stereo not shown) [Compound I-010], the IC50 is 1.2 nM. The IC50 values of the last two molecules are within 1.5-fold of each other.
The molecule `Cc1cc2cc(n1)-c1cnn(C)c1OCC[C@@H](O)CCN1/C(=N/C2=O)Nc2ccccc21` [Compound I-011] had an IC50 of 6.5 nM.
`Cn1ncc2c1OCCC(O)CCN1/C(=N/C(=O)c3cc(Cl)nc-2c3)Nc2ccccc21` (stereo not shown) [Compound I-012] gave an IC50 of 5.2 nM. This IC50 and that of the molecule before are within 1.5-fold of each other.
For the molecule `Cc1cc2cc(n1)-c1cnn(C)c1OC[C@@H](O)C[C@@H](C)CN1/C(=N/C2=O)Nc2ccccc21` [Compound I-013], the IC50 amounted to 0.7 nM.
As to `Cc1cc2cc(n1)-c1cnn(C)c1OC[C@H](O)C[C@@H](C)CN1/C(=N/C2=O)Nc2ccccc21` [Compound I-014], 4.2 nM corresponded to half-maximal inhibition (IC50).
In turn, `Cc1cc2cc(n1)-c1cnn(C)c1OCC[C@H](O)[C@@H](C)CN1/C(=N/C2=O)Nc2ccccc21` [Compound I-015] displayed an IC50 of 0.6 nM. This IC50 is about 7-fold lower than that of the molecule before.
In turn, `Cc1cc2cc(n1)-c1cnn(C)c1OC[C@@H](C)[C@H](O)CCN1/C(=N/C2=O)Nc2ccccc21` [Compound I-016] returned an IC50 of 0.8 nM.
For the molecule `Cc1cc2cc(n1)-c1cnn(C)c1OC[C@@H](C)[C@@H](O)CCN1/C(=N/C2=O)Nc2ccccc21` [Compound I-017], it took 8.9 nM to reach half-maximal inhibition (IC50).
In turn, `Cc1cc2cc(n1)-c1cnn(C)c1OCCC[C@@H](C)CN1/C(=N/C2=O)Nc2ccc(OCCN3CCN(C)CC3)cc21` [Compound I-018] yielded an IC50 of 0.5 nM.
The molecule `Cc1cc2cc(n1)-c1cnn(C)c1OCCC[C@@H](C)CN1/C(=N/C2=O)Nc2ccc(N3CCN(C)CC3)cc21` [Compound I-019] showed an IC50 of 0.6 nM.
For the molecule `CC[C@@H]1CCCOc2c(cnn2C)-c2cc(cc(C)n2)C(=O)/N=C2\Nc3ccc(N4CCN(C)CC4)cc3N2C1` [Compound I-020], the IC50 amounted to 0.6 nM. In other words, the sub-nanomolar range.
`C[C@@H]1CCCOc2c(cnn2C)-c2cc(cc(Cl)n2)C(=O)/N=C2\Nc3ccc(CN4CCN(C)CC4)cc3N2C1` [Compound I-022] registered an IC50 of 0.8 nM.
Molecule `C[C@@H]1CCCOc2c(cnn2C)-c2cc(cc(F)n2)C(=O)/N=C2\Nc3cn(C)nc3N2C1` [Compound I-023] returned an IC50 of 0.5 nM.
`Cc1cc2cc(n1)-c1cnn(C)c1OCCC[C@@H](C)CN1/C(=N/C2=O)Nc2cn(C)nc21` [Compound I-024] came in with an IC50 of 0.6 nM.
Regarding `Cc1cc2cc(n1)-c1cnn(C)c1OCCC[C@@H](C)CN1/C(=N/C2=O)Nc2cnn(C)c21` [Compound I-025], the midpoint of inhibition, the IC50, lay at 0.8 nM. The IC50 values of the last two molecules are within 1.5-fold of each other.
The molecule `C[C@@H]1CCCOc2c(cnn2C)-c2cc(cc(Cl)n2)C(=O)/N=C2\Nc3cn(C)nc3N2C1` [Compound I-026] returned an IC50 of 1.5 nM. Compared with the last molecule, the IC50 is about 1.9-fold higher.
Regarding `C[C@@H]1C[C@H](O)COc2c(cnn2C)-c2cc(cc(Cl)n2)C(=O)/N=C2\Nc3cn(C)nc3N2C1` [Compound I-028], half-maximal inhibition (IC50) was put at 3.5 nM.
For `C[C@@H]1CCCOc2c(cnn2C)-c2cc(cc(Cl)n2)C(=O)/N=C2\Nc3cnn(C)c3N2C1` [Compound I-029] the value was 7.5 nM; for `Cc1cc2cc(n1)-c1cnn(C)c1OCCC(O)CCN1/C(=N/C2=O)Nc2cnn(C)c21` (stereo not shown) [Compound I-030], 28 nM; for `Cc1cc2cc(n1)-c1cnn(C)c1OC[C@@H](C)CCCN1/C(=N/C2=O)Nc2ccc(N3CCN(C)CC3)cc21` [Compound I-031], 0.5 nM.
Molecule `Cc1cc2cc(n1)-c1cnn(C)c1OCCC[C@@H](C)CN1/C(=N/C2=O)Nc2ccc(N3CCOCC3)cc21` [Compound I-032] returned a concentration for half-maximal inhibition (IC50) of 0.6 nM. This IC50 and that of the molecule before are within 1.5-fold of each other.
As to `Cc1cc2cc(n1)-c1cnn(C)c1OCCC[C@@H](C)CN1/C(=N/C2=O)Nc2cc(N3CCN(C)CC3)ccc21` [Compound I-033], inhibition was half-maximal at 0.6 nM (IC50).
`C[C@@H]1CCCOc2c(cnn2C)-c2cc(cc(F)n2)C(=O)/N=C2\Nc3ccccc3N2C1` [Compound I-034]: half-maximal inhibition (IC50) was put at 0.7 nM.
As to `Cc1cc2cc(n1)-c1cnn(C)c1OCCC[C@@H](C)CN1/C(=N/C2=O)Nc2ccc(CN(C)C)cc21` [Compound I-035], the IC50 stood at 0.7 nM.
In the case of `C[C@@H]1CCCOc2c(cnn2C)-c2cc(ccn2)C(=O)/N=C2\Nc3cnn(C)c3N2C1` [Compound I-036], 0.7 nM corresponded to half-maximal inhibition (IC50).
Molecule `Cc1cc2cc(n1)-c1cnn(C)c1OCCC[C@@H](C)CN1/C(=N/C2=O)Nc2ccc(C(=O)N(C)C)cc21` [Compound I-038] displayed an IC50 of 1.3 nM.
For `Cc1cc2cc(n1)-c1cnn(C)c1OCCC[C@@H](C)CN1/C(=N/C2=O)Nc2ccc(C(=O)N3CCN(C)CC3)cc21` [Compound I-039], the midpoint of inhibition, the IC50, lay at 1.6 nM. The IC50 values of the last two molecules are within 1.5-fold of each other.
`Cc1cc2cc(n1)-c1cnn(C)c1OC[C@@H](C)CCCN1/C(=N/C2=O)Nc2cnn(C)c21` [Compound I-040] showed an IC50 of 1.7 nM.
Regarding `COc1cccc2c1N1C[C@H](C)CCCOc3c(cnn3C)-c3cc(cc(C)n3)C(=O)/N=C/1N2` [Compound I-041], the IC50 was 1.9 nM.
For `COC(=O)c1ccc2c(c1)N1C[C@H](C)CCCOc3c(cnn3C)-c3cc(cc(C)n3)C(=O)/N=C/1N2` [Compound I-042] the value was 2.3 nM; for `Cc1cc2cc(n1)-c1cnn(C)c1OC[C@@H](C)CCCN1/C(=N/C2=O)Nc2cc(N3CCN(C)CC3)ccc21` [Compound I-043], 2.3 nM; for `C[C@@H]1CCCOc2c(cnn2C)-c2cc(ccn2)C(=O)/N=C2\Nc3cn(C)nc3N2C1` [Compound I-044], 3.4 nM.
For `Cc1cc2cc(n1)-c1cnn(C)c1OCC[C@@H](O)[C@H](C)CN1/C(=N/C2=O)Nc2ccccc21` [Compound I-045] the value was 3.6 nM.
`O=C1/N=C2\Nc3ccccc3N2CCCCCOc2ccccc2-c2cc1ccn2` [Compound I-047] yielded an IC50 of 6.2 nM.
For the molecule `C[C@@H]1CCOc2ccccc2-c2cc(ccn2)C(=O)/N=C2\Nc3ccccc3N2CC1` [Compound I-048], the IC50 was determined as 15 nM.
Take `Cc1cc2cc(n1)-c1ccccc1OCCCCCN1/C(=N/C2=O)Nc2ccccc21` [Compound I-049]: the IC50 amounted to 16 nM. The IC50 values of the last two molecules are within 1.5-fold of each other.
For `CC1(C)CCCOc2ccccc2-c2cc(ccn2)C(=O)/N=C2\Nc3ccccc3N2C1` [Compound I-050] the value was 17 nM; for `C[C@H]1CCCOc2ccccc2-c2cc(ccn2)C(=O)/N=C2\Nc3ccccc3N2C1` [Compound I-051], 20 nM; for `Cc1cc2cc(n1)-c1cnn(C)c1OCCCCCCCN1/C(=N/C2=O)Nc2ccccc21` [Compound I-052], 23 nM.
Turning to `O=C1/N=C2\Nc3ccccc3N2CCCCCOc2cc(F)ccc2-c2cc1ccn2` [Compound I-053], half-maximal inhibition (IC50) required 24 nM.
